Measured values published in patent US8822410B2, “Tympanic membrane permeating ear drops and uses thereof” (Children's Medical Center Corporation, priority 2008, dated 2014).

Columns and labels:
[1] = pH of ciprofloxacin solutions; type: physicochemical; conditions: 1% ciprofloxacin solution
H. influenza = conditions: middle ear infections; cited from earlier work
S. pneumoniae = conditions: middle ear infections; cited from earlier work

For `O=C(O)c1cn(C2CC2)c2cc(N3CCNCC3)c(F)cc2c1=O` [ciprofloxacin], the “pH of ciprofloxacin solution” value [1] is listed as 3-4, the minimum inhibitory concentration (H. influenza) is listed as “about 4 μg/mL” and the minimum inhibitory concentration (S. pneumoniae) is listed as “about 4 μg/mL”.
